According to patent US20230109010A1, “PESTICIDE COMPOSITIONS WITH SUPRAMOLECULAR STRUCTURES FOR AGRICULTURAL USE” (BPS JUST ENERGY TECHNOLOGY, LLC, priority 2020, published 2023):

Key:
Sclerotinia sclerotiorum = experiment: In vitro fungal bioassay on amended PDA, fungal ring diameter; assay type: cell-based; details: fungicide at EC50 concentration, 24° C., 96 hours
Botrytis cinerea = experiment: as above; assay type: cell-based; details: fungicide at EC50 concentration, 24° C., 96 hours
Macrophomina phaseoli = experiment: as above; assay type: cell-based; details: fungicide at EC50 concentration, 24° C., 96 hours
Rhizoctonia solani = experiment: as above; assay type: cell-based; details: fungicide at EC50 concentration, 24° C., 96 hours
Pythium irregulare = experiment: as above; assay type: cell-based; details: fungicide at EC50 concentration, 24° C., 96 hours
Fusarium graminearum = assay type: cell-based; details: fungicide at EC50 concentration, PDA, 24° C., 96 hours
Fall armyworms = experiment: Insecticide leaf-dip bioassay on spinach squares, percent killed; assay type: in vivo, Spodoptera frugiperda
Description: In this example, a ten replicated in vitro bioassay was conducted to understand the insecticide compatibilities of insecticide compositions with supramolecular host or guest chemistries. This example utilized a common insecticide, chlorantraniliprole at various application rates to understand the impact of supramolecular chemistry. Chlorantraniliprole is an insecticide active ingredient found in Coragen® insecticide, Ferterra® insecticide, and Acelepryn G® insecticide among others. Chlorantraniliprole, also known as Rynaxypyr, is an insecticide belonging to the chemical group, diamides, with a group 28 mode of action. Chlorantraniliprole opens muscular calcium channels (particularly the ryanodine receptor), rapidly causing paralysis and ultimately death of sensitive species, those being of the order of Lepidoptera and some other Coleoptera, Diptera, and Isoptera species.
A 2x factorial was used for ppm dosages to test with those being 0.005, 0.01, 0.02, 0.04, and 0.08 ppm of chlorantraniliprole. The chlorantraniliprole was sourced from Millipore Sigma, CAS Number: 500008-45-7, with the reference material being the material used for this example. The treatments were 0.005, 0.01, 0.02, 0.04, and 0.08 ppm of chlorantraniliprole as control. The supramolcular compositions were screened at the same rates of chlorantraniliprole with the addition of 23% SymMAX™ supramolecular host chemistry to the active (i.e. 0.08 ppm of active would have 0.0184 ppm 23% SymMAX™ supramolecular host chemistry). SymMAX™ supramolecular host chemistry was sourced from Shotwell Hydrogenics. The insects used for this experiment were Fall armyworms, Spodoptera frugiperda, sourced from Benzon Research of Pennsylvania. Eggs were reared to first instar at 23° C. with a noctuid diet also prepared by Benzon research.
Treatment solutions were prepared by making a stock solution of chlorantraniliprole by dissolving 0.0056 grams of chlorantraniliprole into 49.98 grams of acetone to make a 112 ppm stock solution. The stock solution was diluted to 11 ppm to make the appropriate treatment rates and to make the supramolecular compositions. The 11 ppm stock solution of the control and composition was diluted to 0.005, 0.01, 0.02, 0.04, and 0.08 ppm by diluting to a 100 gram solution of water for the leaf dipping.
Treatments were applied to 1-inch squares of spinach that were dipped in each treatment solution and allowed to dry at room temperature at 20° C. for 2 hours before 5 to 6 fall armyworms were added to a petri dish with filter paper and 1.7 mL of water. Each petri dish represents one repetition of the application and the number of live worms added were recorded on each petri dish and counted at 24 and 48 hours.

palmer amaranth = experiment: Field trial in corn at V3, broadcast treatment on 2-4 inch weeds, % weed control; assay type: in vivo, Amaranthus palmeri
Excerpt: (§1) The herbicides tested were glufosinate, glyphosate, and mesotrione. Each herbicide was combined at the specified rate with either deionized water or SymMAX™ supramolecular host water mixture commercially available from Shotwell Hydrogenics at 15 gallons per acre (GPA). Specified rates for glufosinate were 22 ounces per acre, 11 ounces per acre, and 5.5 ounces per acre. Specified rates for glyphosate were 22 ounces per acre, 11 ounces per acre, and 5.5 ounces per acre. Specified rates for mesotrione were 3 ounces per acre, 2 ounces per acre, and 1 ounce per acre.
(§2) This example was conducted as a 4 replicate, RCBD (randomized control block design) in Quitman, GA. An untreated control was used as a standard that provided no weed control and no phytotoxicity. All treatments were compared to the untreated control. Counted dead weeds and living weeds were used to determine % weed control. The untreated control was also used to determine % crop phytotoxicity for the crop. Typical indications of phytotoxicity include chlorosis, stunting, epinasty, and/or leaf burn.
(§3) The trial ran for 14 days with weekly data assessments taken on % crop phytotoxicity and % weed control of four key species: palmer amaranth (Amaranthus palmeri), ivyleaf morning glory (Ipomoea hederacea), fall panicum (Panicum dichotomiflorum) and large crabgrass (Digitaria sanguinalis The test field was over seeded with weed seed obtained from the University of Georgia prior to corn planting. Treatments were applied as a broadcast treatment when corn had reached physiological growth stage V3 and weeds were in the 2-4″ size range. Treatments were applied at various rates ranging from about 1 ounce per acre to about 22 ounces per acre. Tables 9-10 show the % weed control when the weeds are treated with glufosinate. Tables 11-12 show the % weed control when the weeds are treated with glyphosphate. Tables 13-14 show the % weed control when the weeds are treated with mesotrione.

ivyleaf morning glory = experiment: as above; assay type: in vivo, Ipomoea hederacea
Excerpt: as §1, §2, §3

large crabgrass = experiment: as above; assay type: in vivo, Digitaria sanguinalis
Excerpt: as §1, §2, §3

fall panicum = experiment: as above; assay type: in vivo, Panicum dichotomiflorum
Excerpt: as §1, §2, §3

[1] = 7 days, mesotrione 1 ounce/acre
[2] = 7 days, mesotrione 2 ounces/acre
[3] = 7 days, mesotrione 3 ounces/acre
[4] = 14 days, mesotrione 1 ounce/acre
[5] = 14 days, mesotrione 2 ounces/acre
[6] = 14 days, mesotrione 3 ounces/acre

SMILES: CO/C=C(/C(=O)OC)c1ccccc1Oc1cc(Oc2ccccc2C#N)ncn1 [Azoxystrobin, azoxystrobin]
- FUNGAL RING DIAMETER (mm) FOR AZOXYSTROBIN (Sclerotinia sclerotiorum): 43.1 mm
- FUNGAL RING DIAMETER (mm) FOR AZOXYSTROBIN (Botrytis cinerea): 52.5 mm
- FUNGAL RING DIAMETER (mm) FOR AZOXYSTROBIN (Macrophomina phaseoli): 40.2 mm
- FUNGAL RING DIAMETER (mm) FOR AZOXYSTROBIN (Rhizoctonia solani): 48.4 mm
- FUNGAL RING DIAMETER (mm) FOR AZOXYSTROBIN (Pythium irregulare): 44.3 mm
- FUNGAL RING DIAMETER (mm) FOR AZOXYSTROBIN (Fusarium graminearum): 21.1 mm

SMILES: CNC(=O)c1cc(Cl)cc(C)c1NC(=O)c1cc(Br)nn1-c1ncccc1Cl [Chlorantraniliprole Control, chlorantraniliprole]
- PERCENT KILLED AT 24 HOURS (Fall armyworms; 0.005 ppm chlorantraniliprole): 26.0%
- PERCENT KILLED AT 48 HOURS (Fall armyworms; 0.005 ppm chlorantraniliprole): 36.0%
- PERCENT KILLED AT 24 HOURS (Fall armyworms; 0.01 ppm chlorantraniliprole): 15.3%
- PERCENT KILLED AT 48 HOURS (Fall armyworms; 0.01 ppm chlorantraniliprole): 57.0%
- PERCENT KILLED AT 24 HOURS (Fall armyworms; 0.02 ppm chlorantraniliprole): 15.3%
- PERCENT KILLED AT 48 HOURS (Fall armyworms; 0.02 ppm chlorantraniliprole): 28.9%
- PERCENT KILLED AT 24 HOURS (Fall armyworms; 0.04 ppm chlorantraniliprole): 37.7%
- PERCENT KILLED AT 48 HOURS (Fall armyworms; 0.04 ppm chlorantraniliprole): 81.4%
- PERCENT KILLED AT 24 HOURS (Fall armyworms; 0.08 ppm chlorantraniliprole): 19.6%
- PERCENT KILLED AT 48 HOURS (Fall armyworms; 0.08 ppm chlorantraniliprole): 91.7%

SMILES: CS(=O)(=O)c1ccc(C(=O)C2C(=O)CCCC2=O)c([N+](=O)[O-])c1 [Mesotrione, mesotrione]
- % WEED CONTROL FOR PALMER AMARANTH (palmer amaranth; [1]): 87.4%
- % WEED CONTROL FOR PALMER AMARANTH (palmer amaranth; [2]): 97.7%
- % WEED CONTROL FOR PALMER AMARANTH (palmer amaranth; [3]): 99.0%
- % WEED CONTROL FOR PALMER AMARANTH (palmer amaranth; [4]): 95.1%
- % WEED CONTROL FOR PALMER AMARANTH (palmer amaranth; [5]): 97.0%
- % WEED CONTROL FOR PALMER AMARANTH (palmer amaranth; [6]): 99.3%
- % WEED CONTROL FOR IVYLEAF MORNINGLORY (ivyleaf morning glory; [1]): 64.5%
- % WEED CONTROL FOR IVYLEAF MORNINGLORY (ivyleaf morning glory; [2]): 91.6%
- % WEED CONTROL FOR IVYLEAF MORNINGLORY (ivyleaf morning glory; [3]): 94.2%
- % WEED CONTROL FOR IVYLEAF MORNINGLORY (ivyleaf morning glory; [4]): 88.8%
- % WEED CONTROL FOR IVYLEAF MORNINGLORY (ivyleaf morning glory; [5]): 96.5%
- % WEED CONTROL FOR IVYLEAF MORNINGLORY (ivyleaf morning glory; [6]): 99.1%
- % WEED CONTROL FOR LARGE CRABGRASS (large crabgrass; [1]): 62.3%
- % WEED CONTROL FOR LARGE CRABGRASS (large crabgrass; [2]): 81.5%
- % WEED CONTROL FOR LARGE CRABGRASS (large crabgrass; [3]): 91.5%
- % WEED CONTROL FOR LARGE CRABGRASS (large crabgrass; [4]): 63.0%
- % WEED CONTROL FOR LARGE CRABGRASS (large crabgrass; [5]): 78.8%
- % WEED CONTROL FOR LARGE CRABGRASS (large crabgrass; [6]): 88.5%
- % WEED CONTROL FOR FALL PANICUM (fall panicum; [1]): 62.8%
- % WEED CONTROL FOR FALL PANICUM (fall panicum; [2]): 72.3%
- % WEED CONTROL FOR FALL PANICUM (fall panicum; [3]): 87.3%
- % WEED CONTROL FOR FALL PANICUM (fall panicum; [4]): 54.8%
- % WEED CONTROL FOR FALL PANICUM (fall panicum; [5]): 62.3%
- % WEED CONTROL FOR FALL PANICUM (fall panicum; [6]): 86.0%

SMILES: FC(F)C(F)(F)OCC(Cn1cncn1)c1ccc(Cl)cc1Cl (stereo not shown) [Tetraconazole, tetraconazole]
- FUNGAL RING DIAMETER (mm) FOR FLUXAPYROXAD (Sclerotinia sclerotiorum): 65.41 mm
- FUNGAL RING DIAMETER (mm) FOR TETRACONAZOLE (Sclerotinia sclerotiorum): 56.96 mm
- FUNGAL RING DIAMETER (mm) FOR FLUXAPYROXAD (Botrytis cinerea): 49.988 mm
- FUNGAL RING DIAMETER (mm) FOR TETRACONAZOLE (Botrytis cinerea): 65.2 mm
- FUNGAL RING DIAMETER (mm) FOR FLUXAPYROXAD (Macrophomina phaseoli): 66.979 mm
- FUNGAL RING DIAMETER (mm) FOR TETRACONAZOLE (Macrophomina phaseoli): 61.298 mm
- FUNGAL RING DIAMETER (mm) FOR FLUXAPYROXAD (Rhizoctonia solani): 54.377 mm
- FUNGAL RING DIAMETER (mm) FOR TETRACONAZOLE (Rhizoctonia solani): 74.33 mm
- FUNGAL RING DIAMETER (mm) FOR FLUXAPYROXAD (Pythium irregulare): 89 mm
- FUNGAL RING DIAMETER (mm) FOR TETRACONAZOLE (Pythium irregulare): 85.93 mm
- FUNGAL RING DIAMETER (mm) FOR FLUXAPYROXAD (Fusarium graminearum): 40.783 mm
- FUNGAL RING DIAMETER (mm) FOR TETRACONAZOLE (Fusarium graminearum): 30.766 mm
